Results as given in ChEMBL document CHEMBL4610033, “(1-4)-Thiodisaccharides as anticancer agents. Part 5. Evaluation of anticancer activity and investigation of mechanism of action” (Bioorg Med Chem Lett, 2020).
Each block holds one molecule with its values, some of them ahead of it. Activity calls are given as the source filed them. The calls are words filed in the database; no cut-off is given here.

Experiments:
U-87 MG [1] = test: Antiproliferative activity against human U87 cells assessed as reduction in cell viability after 14 hrs by CCK8 assay; format: functional, cell-based, U-87MG ATCC
[2] = Antiproliferative activity against human H6PX cells assessed as reduction in cell viability after 14 hrs by CCK8 assay; format: functional, cell-based
[3] = Antiproliferative activity against human H7PX cells assessed as reduction in cell viability after 14 hrs by CCK8 assay; format: functional, cell-based
U-87 MG [4] = test: Anticlonogenic activity against human U87 cells assessed as ratio of the number of colonies to the number of cells seeded at IC20 incubated for 14 days followed by replating and measured after 2 weeks by crystal violet staining based microscopic analysis (reference value: 100%); format: functional, U-87MG ATCC
[5] = Anticlonogenic activity against human H6PX cells assessed as ratio of the number of colonies to the number of cells seeded at IC20 incubated for 14 days followed by replating and measured after 2 weeks by crystal violet staining based microscopic analysis (reference value: 100%); format: functional
[6] = Anticlonogenic activity against human H7PX cells assessed as ratio of the number of colonies to the number of cells seeded at IC20 incubated for 14 days followed by replating and measured after 2 weeks by crystal violet staining based microscopic analysis (reference value: 100%); format: functional
U-87 MG [7] = test: Induction of apoptosis in human U87 cells assessed as viable cells at IC20 after 4 hrs by AnnexinV-FITC/PI staining based flow cytometry analysis (reference value: 93.1%); format: functional, U-87MG ATCC
U-87 MG [8] = test: Induction of apoptosis in human U87 cells assessed as apoptotic cells at IC20 after 4 hrs by AnnexinV-FITC/PI staining based flow cytometry analysis (reference value: 6.9%); format: functional, U-87MG ATCC
[9] = Induction of apoptosis in human H6PX cells assessed as viable cells at IC20 after 4 hrs by AnnexinV-FITC/PI staining based flow cytometry analysis (reference value: 90.3%); format: functional
[10] = Induction of apoptosis in human H6PX cells assessed as apoptotic cells at IC20 after 4 hrs by AnnexinV-FITC/PI staining based flow cytometry analysis (reference value: 9.7%); format: functional
[11] = Induction of apoptosis in human H7PX cells assessed as viable cells at IC20 after 4 hrs by AnnexinV-FITC/PI staining based flow cytometry analysis (reference value: 90.4%); format: functional
[12] = Induction of apoptosis in human H7PX cells assessed as apoptotic cells at IC20 after 4 hrs by AnnexinV-FITC/PI staining based flow cytometry analysis (reference value: 9.6%); format: functional
U-87 MG [13] = test: Induction of apoptosis in human U87 cells assessed as reduction in bcl2 gene expression at IC20 after 4 hrs by RT-PCR analysis relative to untreated control; format: functional, U-87MG ATCC
U-87 MG [14] = test: Induction of apoptosis in human U87 cells assessed as increase in FASLG gene expression at IC20 after 4 hrs by RT-PCR analysis relative to untreated control; format: functional, U-87MG ATCC
[15] = Induction of apoptosis in human H6PX cells assessed as reduction in bcl2 gene expression at IC20 after 4 hrs by RT-PCR analysis relative to untreated control; format: functional
[16] = Induction of apoptosis in human H6PX cells assessed as increase in FASLG gene expression at IC20 after 4 hrs by RT-PCR analysis relative to untreated control; format: functional
[17] = Induction of apoptosis in human H7PX cells assessed as reduction in bcl2 gene expression at IC20 after 4 hrs by RT-PCR analysis relative to untreated control; format: functional
[18] = Induction of apoptosis in human H7PX cells assessed as increase in FASLG gene expression at IC20 after 4 hrs by RT-PCR analysis relative to untreated control; format: functional
U-87MG ATCC [19] = test: Inhibition of TrxR in human U87 cells at IC20 incubated for 1 hr and measured up to 4 hrs by DNTB-reagent based colorimetric assay; format: cell-based
Homo sapiens [20] = species on record: Homo sapiens; test: Inhibition of TrxR in human H6PX cells at IC20 incubated for 1 hr and measured up to 4 hrs by DNTB-reagent based colorimetric assay; format: cell-based
Homo sapiens [21] = species on record: Homo sapiens; test: Inhibition of TrxR in human H7PX cells at IC20 incubated for 1 hr and measured up to 4 hrs by DNTB-reagent based colorimetric assay; format: cell-based
U-87MG ATCC [22] = test: Inhibition of TrxR in human U87 cells at IC20 incubated for 1 hr and measured after 4 hrs by TRFS-GREEN dye based fluorescence microscopic analysis; format: cell-based
Homo sapiens [23] = species on record: Homo sapiens; test: Inhibition of TrxR in human H6PX cells at IC20 incubated for 1 hr and measured after 4 hrs by TRFS-GREEN dye based fluorescence microscopic analysis; format: cell-based
Homo sapiens [24] = species on record: Homo sapiens; test: Inhibition of TrxR in human H7PX cells at IC20 incubated for 1 hr and measured after 4 hrs by TRFS-GREEN dye based fluorescence microscopic analysis; format: cell-based
U-87 MG [25] = test: Induction of ROS generation in human U87 cells at IC20 incubated for 1 hr by CM-H2DCFDA staining based microplate reader analysis; format: functional, cell-based; details: U-87MG ATCC
U-87MG ATCC [26] = test: Inhibition of TrxR in human U87 cells assessed as reduction in intracellular thiol levels at IC20 after 1 hr by DNTB reagent based assay relative to control; format: cell-based; set-up: scale not given: the % may be the effect or the level left
Homo sapiens [27] = species on record: Homo sapiens; test: Inhibition of TrxR in human H6PX cells assessed as reduction in intracellular thiol levels at IC20 after 1 hr by DNTB reagent based assay relative to control; format: cell-based; set-up: scale not given: the % may be the effect or the level left
Homo sapiens [28] = species on record: Homo sapiens; test: Inhibition of TrxR in human […] cells assessed as reduction in intracellular thiol levels at IC20 after 1 hr by DNTB reagent based assay relative to control; format: cell-based; set-up: scale not given: the % may be the effect or the level left
U-87 MG [29] = test: Inhibition of protein synthesis in human U87 cells at IC20 for 14 hrs in presence of labeled methionine by fluorescence microscopic analysis; format: functional, cell-based; details: U-87MG ATCC
Homo sapiens [30] = species on record: Homo sapiens; test: Inhibition of protein synthesis in human H6PX cells at IC20 for 14 hrs in presence of labeled methionine by fluorescence microscopic analysis; format: functional, cell-based
Homo sapiens [31] = species on record: Homo sapiens; test: Inhibition of protein synthesis in human H7PX cells at IC20 for 14 hrs in presence of labeled methionine by fluorescence microscopic analysis; format: functional, cell-based
U-87 MG [32] = test: Induction of endoplasmic reticulum stress in human U87 cells assessed as GRP78 expression at IC20 after 1 hr by ELISA relative to control; format: functional, U-87MG ATCC
U-87 MG [33] = test: Induction of endoplasmic reticulum stress in human U87 cells assessed as PDIA4 expression at IC20 after 1 hr by ELISA relative to control; format: functional, U-87MG ATCC
U-87 MG [34] = test: Induction of endoplasmic reticulum stress in human U87 cells assessed as EDEM expression at IC20 after 1 hr by ELISA relative to control; format: functional, U-87MG ATCC
U-87 MG [35] = test: Induction of endoplasmic reticulum stress in human U87 cells assessed as DDIT3 expression at IC20 after 1 hr by ELISA relative to control; format: functional, U-87MG ATCC
U-87 MG [36] = test: Induction of endoplasmic reticulum stress in human U87 cells assessed as DNAJC3 expression at IC20 after 1 hr by ELISA relative to control; format: functional, U-87MG ATCC
U-87 MG [37] = test: Induction of endoplasmic reticulum stress in human U87 cells assessed as GRP78 expression at IC20 after 2 hrs by ELISA relative to control; format: functional, U-87MG ATCC
U-87 MG [38] = test: Induction of endoplasmic reticulum stress in human U87 cells assessed as PDIA4 expression at IC20 after 2 hrs by ELISA relative to control; format: functional, U-87MG ATCC
U-87 MG [39] = test: Induction of endoplasmic reticulum stress in human U87 cells assessed as EDEM expression at IC20 after 2 hrs by ELISA relative to control; format: functional, U-87MG ATCC
U-87 MG [40] = test: Induction of endoplasmic reticulum stress in human U87 cells assessed as DDIT3 expression at IC20 after 2 hrs by ELISA relative to control; format: functional, U-87MG ATCC
U-87 MG [41] = test: Induction of endoplasmic reticulum stress in human U87 cells assessed as DNAJC3 expression at IC20 after 2 hrs by ELISA relative to control; format: functional, U-87MG ATCC
[42] = Drug uptake in human U87 cells after 2 hrs by microbeta liquid scintillation counting analysis; format: ADME, cell-based; details: u-87mg atcc
[43] = Drug accumulation in human U87 cells after 2 hrs by microbeta liquid scintillation counting analysis; format: ADME, cell-based; details: u-87mg atcc

IC50 (U-87 MG [1]): 922 µM
SMILES: O=C(O)c1ccccc1S[C@@H]1CC(=O)[C@@H]2OC[C@H]1O2
IC20 (U-87 MG [1]): 784 µM
IC20 [2]: 922 µM
IC50 [2]: 955 µM
IC20 [3]: 654 µM
IC50 [3]: 736 µM
Activity (U-87 MG [4]): 86%
Activity [5]: 75%
Activity [6]: 98%

IC50 (U-87 MG [1]): 65.2 µM
Drug uptake [42]: Active
Drug uptake [43]: Not Active
SMILES: CC(=O)OC[C@H]1O[C@@H](S[C@@H]2CC(=O)[C@@H]3OC[C@H]2O3)[C@H](OC(C)=O)[C@@H](OC(C)=O)[C@@H]1OC(C)=O
IC20 (U-87 MG [1]): 51.4 µM
IC20 [2]: 113 µM
IC50 [2]: 133 µM
IC20 [3]: 134 µM
IC50 [3]: 158 µM
Activity (U-87 MG [4]): 40%
Activity [5]: 46%
Activity [6]: 63%
Activity (U-87 MG [7]): 37.8%
Activity (U-87 MG [8]): 62.2%
Activity [9]: 19.6%
Activity [10]: 80.4%
Activity [11]: 56.7%
Activity [12]: 43.3%
fold change (FC) (U-87 MG [13]): -0.35
fold change (FC) (U-87 MG [14]): 3.25
fold change (FC) [15]: -0.4
fold change (FC) [16]: 4.46
fold change (FC) [17]: -0.69
fold change (FC) [18]: 6.12
inhibition (U-87MG ATCC [19]): Active
inhibition (Homo sapiens [20]): Active
inhibition (Homo sapiens [21]): Active
inhibition (U-87MG ATCC [22]): Active
inhibition (Homo sapiens [23]): Active
inhibition (Homo sapiens [24]): Active
Activity (U-87 MG [25]): Active
Activity (U-87MG ATCC [26]): 11.8%
Activity (Homo sapiens [27]): 22.3%
Activity (Homo sapiens [28]): 19.7%
inhibition (U-87 MG [29]): Active
inhibition (Homo sapiens [30]): Active
inhibition (Homo sapiens [31]): Active
fold change (FC) (U-87 MG [32]): 1.81
fold change (FC) (U-87 MG [33]): 1.9
fold change (FC) (U-87 MG [34]): 2.39
fold change (FC) (U-87 MG [35]): 7.01
fold change (FC) (U-87 MG [36]): 1.07
fold change (FC) (U-87 MG [37]): 1.38
fold change (FC) (U-87 MG [38]): 1.24
fold change (FC) (U-87 MG [39]): 1.1
fold change (FC) (U-87 MG [40]): 0.11
fold change (FC) (U-87 MG [41]): 2.43
